Measurements: US10077261B2, “Imidazolin-5-one derivative useful as FASN inhibitors for the treatment of cancer” (Janssen Pharmaceutica NV, priority 2012, dated 2018)

Assays:
[1] = target: T1, hFASN enzyme (full length) (Homo sapiens, UniProt P49327); assay: Fatty Acid Synthase (FASN) inhibition scintillation proximity assay; type: biochemical; details: for inhibition at 10 µM: read-out: Human FASN % inhibition @ 10 μM, 10 μM test compound
T1 construct: 10 μL hFASN enzyme (full length, 300 ng, purified in house); made in house
T1 sequence (P49327 whole entry): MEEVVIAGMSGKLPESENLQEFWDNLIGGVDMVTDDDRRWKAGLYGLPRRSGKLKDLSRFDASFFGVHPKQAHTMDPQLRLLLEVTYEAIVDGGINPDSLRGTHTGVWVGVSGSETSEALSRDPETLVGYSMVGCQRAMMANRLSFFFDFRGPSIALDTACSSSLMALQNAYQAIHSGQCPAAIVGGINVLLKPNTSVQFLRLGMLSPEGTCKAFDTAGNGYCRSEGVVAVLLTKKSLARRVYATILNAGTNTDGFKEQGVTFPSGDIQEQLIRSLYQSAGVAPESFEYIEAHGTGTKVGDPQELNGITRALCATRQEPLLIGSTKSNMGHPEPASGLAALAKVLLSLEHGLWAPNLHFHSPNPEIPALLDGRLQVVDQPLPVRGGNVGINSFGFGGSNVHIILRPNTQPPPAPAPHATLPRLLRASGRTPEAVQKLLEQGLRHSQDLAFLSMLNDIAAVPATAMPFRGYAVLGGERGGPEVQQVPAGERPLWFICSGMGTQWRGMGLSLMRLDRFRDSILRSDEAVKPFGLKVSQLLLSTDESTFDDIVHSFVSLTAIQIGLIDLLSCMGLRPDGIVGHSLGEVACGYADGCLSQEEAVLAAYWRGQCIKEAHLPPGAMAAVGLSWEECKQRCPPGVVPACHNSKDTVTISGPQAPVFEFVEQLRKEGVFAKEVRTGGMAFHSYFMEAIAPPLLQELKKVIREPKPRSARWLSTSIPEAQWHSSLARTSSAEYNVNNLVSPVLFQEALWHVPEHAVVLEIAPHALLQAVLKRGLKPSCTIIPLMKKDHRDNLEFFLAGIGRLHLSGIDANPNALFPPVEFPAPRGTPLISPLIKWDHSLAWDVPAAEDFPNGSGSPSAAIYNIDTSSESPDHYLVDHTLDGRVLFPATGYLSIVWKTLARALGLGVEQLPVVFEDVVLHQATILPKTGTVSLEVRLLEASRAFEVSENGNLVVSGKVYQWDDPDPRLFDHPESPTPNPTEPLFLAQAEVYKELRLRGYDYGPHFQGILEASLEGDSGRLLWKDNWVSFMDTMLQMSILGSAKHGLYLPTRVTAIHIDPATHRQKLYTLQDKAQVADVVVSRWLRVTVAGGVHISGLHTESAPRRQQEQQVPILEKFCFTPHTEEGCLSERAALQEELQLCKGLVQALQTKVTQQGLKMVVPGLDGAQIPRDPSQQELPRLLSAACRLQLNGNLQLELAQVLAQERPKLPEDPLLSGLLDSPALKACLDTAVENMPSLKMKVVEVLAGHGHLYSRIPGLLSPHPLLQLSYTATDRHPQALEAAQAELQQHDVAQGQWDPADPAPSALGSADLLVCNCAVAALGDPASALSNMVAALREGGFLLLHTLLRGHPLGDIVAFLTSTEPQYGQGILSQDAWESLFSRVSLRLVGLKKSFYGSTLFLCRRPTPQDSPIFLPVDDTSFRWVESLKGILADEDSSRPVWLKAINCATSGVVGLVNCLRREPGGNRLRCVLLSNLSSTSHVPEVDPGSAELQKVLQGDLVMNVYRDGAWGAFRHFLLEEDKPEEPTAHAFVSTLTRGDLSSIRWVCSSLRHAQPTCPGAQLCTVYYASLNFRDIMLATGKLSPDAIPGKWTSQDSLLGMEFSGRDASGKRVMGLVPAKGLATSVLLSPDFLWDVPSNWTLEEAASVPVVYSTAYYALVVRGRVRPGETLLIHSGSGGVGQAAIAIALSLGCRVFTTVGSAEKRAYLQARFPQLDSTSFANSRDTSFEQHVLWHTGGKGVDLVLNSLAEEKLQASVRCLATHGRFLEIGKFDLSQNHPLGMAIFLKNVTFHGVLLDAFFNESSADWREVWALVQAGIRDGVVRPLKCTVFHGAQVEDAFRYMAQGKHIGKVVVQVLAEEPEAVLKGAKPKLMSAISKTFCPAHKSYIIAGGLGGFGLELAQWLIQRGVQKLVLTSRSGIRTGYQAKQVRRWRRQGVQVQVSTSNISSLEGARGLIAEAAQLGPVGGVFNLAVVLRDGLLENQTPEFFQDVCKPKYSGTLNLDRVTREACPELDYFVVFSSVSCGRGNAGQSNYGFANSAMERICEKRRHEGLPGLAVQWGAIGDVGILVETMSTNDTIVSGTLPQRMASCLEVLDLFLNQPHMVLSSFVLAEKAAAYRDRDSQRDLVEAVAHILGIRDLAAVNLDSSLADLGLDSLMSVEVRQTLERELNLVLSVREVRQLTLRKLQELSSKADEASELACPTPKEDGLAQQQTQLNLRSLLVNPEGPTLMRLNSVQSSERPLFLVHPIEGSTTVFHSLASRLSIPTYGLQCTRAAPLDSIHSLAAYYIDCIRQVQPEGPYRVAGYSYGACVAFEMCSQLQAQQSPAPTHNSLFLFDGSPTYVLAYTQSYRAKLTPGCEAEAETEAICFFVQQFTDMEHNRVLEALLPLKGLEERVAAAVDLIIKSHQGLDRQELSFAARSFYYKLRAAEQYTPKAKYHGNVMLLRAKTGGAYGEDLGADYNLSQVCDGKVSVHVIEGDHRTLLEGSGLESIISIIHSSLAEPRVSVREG
Outline: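 Purified full-length hFASN (300 ng) converts ^3H-acetyl-CoA plus malonyl-CoA to ^3H-palmitate in 100 mM KH2PO4 pH 7.5, 1 mM DTT; compounds tested at 0.01–30 μM. Product captured on streptavidin imaging beads and read by LEADseeker at 610 nm after ≥24 h; 4-parameter logistic fit versus controls.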

A2780 ovarian cells [2] = assay: A2780 ovarian cell proliferation assay in lipid reduced medium, without palmitate (MTT); type: cell-based; details: Homo sapiens, A2780, 96 h; read-out: pIC50 A2780 Ovarian Cell, Without Palmitate (converted)
A2780 ovarian cells [3] = assay: A2780 ovarian cell proliferation assay in lipid reduced medium, with palmitate (MTT); type: cell-based; details: Homo sapiens, A2780, 96 h; read-out: pIC50 A2780 Ovarian Cell, With Palmitate (converted)
Outline: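 Seeded cells were switched next day to lipid-reduced serum, exposed to compound and 25 μM palmitate complexed with fatty-acid-free BSA, and incubated 96 h. Proliferation was then determined by MTT absorbance at 544 nm, with a best-fit curve of signal against concentration.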

[4] = test system: PC-3M-Luc-C6 prostate cells; assay: In vitro PC-3M-Luc-C6 prostate cell proliferation assay in lipid reduced medium; type: cell-based; details: 96 h, read-out: pIC50 PC-3M-Luc-C6 prostate cell (converted)
Procedure: PC-3M-Luc-C6 prostate cells were obtained from Xenogen Corporation. Cells were maintained in MEM supplemented with 10% Fetal Calf Serum (FCS, Hyclone), 2 mM glutamine, 1 mM sodium pyruvate, 1% BME vitamins (available from for example, Sigma Aldrich), 0.1 mM non Essential Amino Acid and 50 μg/ml Gentamicin. The cells were passaged twice a week.
The next day 10 μl test compound/DMSO diluted in medium was added (3E-5M, 1E-5M, 3E-6M, 1E-6M, 3E-7M, 1E-7M, 3E-8M, 1E-8M final concentration). Compounds were tested in duplicate. After 96 h incubation at 37° C., 5% CO2 25 μl ATP-glow mix was added. The plate was incubated for 30 min at 37° C. and luminescence was measured with the Envision.
Analysis: Determination of pIC50 Values
pIC50 values were calculated as follows.
where mLC and mHC are the means of the low control wells and high control wells on the plate, after manual exclusion of outliers. The relation between the % Controlmin values and concentration was fitted to a 4-parameter logistic curve using a non-linear least squares regression method to determine the pIC50 value. Outlying data points were excluded manually to get a correct fit. The pIC50 corresponds to −log 10(IC50), if the IC50 is expressed in molar units (http://www.ncbi.nlm.nih.gov/books/NBK91994). The IC50 parameter was always determined by non-linear regression, but one or more of the other parameters may have been held fixed on a relevant input value, such as 0 for the bottom values.

[5] = test system: LNCaP-Vancouver prostate cells; assay: In vitro LNCaP Vancouver prostate cell proliferation assay in lipid reduced medium; type: cell-based; details: read-out: pIC50 LNCaP_Vancouver prostate cell (converted)

| Structure (SMILES) | inhibition at 10 µM [1] | IC50 (A2780 ovarian cells [2]) | IC50 (A2780 ovarian cells [3]) | IC50 [4] | IC50 [5] | IC50 ([1]; read-out: Human FASN pIC50 (converted)) |
| --- | --- | --- | --- | --- | --- | --- |
| O=C(C1CC1)N1CC[C@@H](CN2C(=O)C3(CC3)N=C2c2ccc(-c3cccc(SC4CC4)c3)cc2F)C1 [compound 641, 6-{[(3R)-1-(Cyclopropylcarbonyl)pyrrolidin-3-yl]methyl}-5-[3′-(cyclopropylsulfanyl)-3-fluorobiphenyl-4-yl]-4,6-diazaspiro[2.4]hept-4-en-7-one] | 102% | ~2240 nM | > 10000 nM | ~562 nM | 4570 nM | – |
| O=C(C1CC1)N1CC[C@@H](CN2C(=O)C3(CC3)N=C2c2ccc(-c3ccc4cccnc4c3)cc2)C1 [compound 309, (R)-6-((1-(cyclopropanecarbonyl)pyrrolidin-3-yl)methyl)-5-(4-(quinolin-7-yl)phenyl)-4,6-diazaspiro[2.4]hept-4-en-7-one] | – | 6.17 nM | > 10000 nM | 7.41 nM | 31.6 nM | – |
| Cc1cc(C2=NC3(CC3)C(=O)N2C[C@@H]2CCN(C(=O)C3CC3)C2)ccc1-c1ccc2c(cnn2C)c1 [compound 450, 6-{[(3R)-1-(Cyclopropylcarbonyl)pyrrolidin-3-yl]methyl}-5-[3-methyl-4-(1-methyl-1H-indazol-5-yl)phenyl]-4,6-diazaspiro[2.4]hept-4-en-7-one] | – | ~617 nM | > 10000 nM | 794 nM | 2340 nM | – |
| O=C(C1CC1)N1CC[C@H](CN2C(=O)C3(CC3)N=C2c2ccc(-c3ccc4occc4c3)cc2)C1 [compound 409, 5-[4-(1-Benzofuran-5-yl)phenyl]-6-{[(3S)-1-(cyclopropylcarbonyl)pyrrolidin-3-yl]methyl}-4,6-diazaspiro[2.4]hept-4-en-7-one] | – | 2090 nM | > 10000 nM | 1170 nM | 2190 nM | – |
| O=C(C1CC1)N1CC[C@@H](CN2C(=O)C3(CC3)N=C2c2ccc(-c3ccc4ncccc4c3)cc2)C1 [compound 455, 6-{[(3R)-1-(Cyclopropylcarbonyl)pyrrolidin-3-yl]methyl}-5-(4-quinolin-6-ylphenyl)-4,6-diazaspiro[2.4]hept-4-en-7-one] | – | ~891 nM | > 10000 nM | ~692 nM | 2140 nM | – |
| Cc1cc(-c2ccc3c(cnn3C)c2)ccc1C1=NC2(CC2)C(=O)N1CC1CN(C(=O)C2CCC2)C1 [compound 489] | 97% | 148 nM | > 10000 nM | ~251 nM | 708 nM | – |
| O=C(C1CC1)N1CC[C@@H](CN2C(=O)C3(CC3)N=C2c2ccc(-c3n[nH]c4ccccc34)cc2)C1 [compound 528, 6-{[(3R)-1-(Cyclopropylcarbonyl)pyrrolidin-3-yl]methyl}-5-[4-(1H-indazol-3-yl)phenyl]-4,6-diazaspiro[2.4]hept-4-en-7-one] | – | ~398 nM | > 10000 nM | 501 nM | 2340 nM | – |
| O=C(C1CC1)N1CC(CN2C(=O)C3(CC3)N=C2c2ccc(-c3ccc4cc(F)ccc4n3)cc2F)C1 [compound 228, 6-((1-(cyclopropanecarbonyl)azetidin-3-yl)methyl)-5-(2-fluoro-4-(6-fluoroquinolin-2-yl)phenyl)-4,6-diazaspiro[2.4]hept-4-en-7-one] | 103% | 18.2 nM | > 10000 nM | 97.7 nM | 759 nM | – |
| Cc1cc2cc(-c3ccc(C4=NC5(CC5)C(=O)N4C[C@@H]4CCN(C(=O)C5CC5)C4)cc3)ccc2o1 [compound 294, (R)-6-((1-(cyclopropanecarbonyl)pyrrolidin-3-yl)methyl)-5-(4-(2-methylbenzofuran-5-yl)phenyl)-4,6-diazaspiro[2.4]hept-4-en-7-one] | 100% | ~1860 nM | > 10000 nM | ~871 nM | 2040 nM | – |
| Cc1cc(-c2ccc3c(cnn3C)c2)ccc1C1=NC2(CC2)C(=O)N1C[C@@H]1CCN(C(=O)C2CC2)C1 [compound 262, (R)-6-((1-(cyclopropanecarbonyl)pyrrolidin-3-yl)methyl)-5-(2-methyl-4-(1-methyl-1H-indazol-5-yl)phenyl)-4,6-diazaspiro[2.4]hept-4-en-7-one] | – | 77.6 nM | 6030 nM | ~117 nM | 295 nM | – |
| O=C(C1CC1)N1CC[C@@H](CN2C(=O)C3(CC3)N=C2c2ccc(-c3nc4ccccc4s3)cc2F)C1 [compound 252, (R)-5-(4-(benzo[d]thiazol-2-yl)-2-fluorophenyl)-6-((1-(cyclopropanecarbonyl)pyrrolidin-3-yl)methyl)-4,6-diazaspiro[2.4]hept-4-en-7-one] | – | ~77.6 nM | > 10000 nM | 56.2 nM | 251 nM | – |
| O=C(C1CC1)N1CC(CN2C(=O)C3(CC3)N=C2c2ccc(-c3nc4cc(Cl)ccc4s3)cc2F)C1 [compound 643, 5-[4-(5-Chloro-1,3-benzothiazol-2-yl)-2-fluorophenyl]-6-{[1-(cyclopropylcarbonyl)azetidin-3-yl]methyl}-4,6-diazaspiro[2.4]hept-4-en-7-one] | 96% | ~676 nM | ~10000 nM | 977 nM | 3020 nM | 380 nM |
| Cc1cc(C2=NC3(CC3)C(=O)N2C[C@@H]2CCN(C(=O)C3CC3)C2)ccc1-c1ccc2cc[nH]c2c1 [compound 239, (R)-5-(4-(1H-indol-6-yl)-3-methylphenyl)-6-((1-(cyclopropanecarbonyl)pyrrolidin-3-yl)methyl)-4,6-diazaspiro[2.4]hept-4-en-7-one] | 96% | 60.3 nM | > 10000 nM | 135 nM | 813 nM | – |
| Cc1c(-c2ccc(C3=NC4(CC4)C(=O)N3CC3CN(C(=O)C4CC4)C3)cc2)ccc2c1cnn2C [compound 491, 6-{[1-(Cyclopropylcarbonyl)azetidin-3-yl]methyl}-5-[4-(1,4-dimethyl-1H-indazol-5-yl)phenyl]-4,6-diazaspiro[2.4]hept-4-en-7-one] | 100% | 72.4 nM | > 10000 nM | ~178 nM | 1000 nM | – |
| O=C(C1CC1)N1CC[C@@H](CN2C(=O)C3(CC3)N=C2c2ccc(-c3cnc4ccccc4c3)cc2)C1 [compound 474, 6-{[(3R)-1-(Cyclopropylcarbonyl)pyrrolidin-3-yl]methyl}-5-(4-quinolin-3-ylphenyl)-4,6-diazaspiro[2.4]hept-4-en-7-one] | – | 200 nM | > 10000 nM | 708 nM | 1000 nM | – |
| Cn1ncc2cc(-c3ccc(C4=NC5(CC5)C(=O)N4C[C@H]4CCN(C(=O)C5CC5)C4)cc3)ccc21 [compound 410, 6-{[(3S)-1-(Cyclopropylcarbonyl)pyrrolidin-3-yl]methyl}-5-[4-(1-methyl-1H-indazol-5-yl)phenyl]-4,6-diazaspiro[2.4]hept-4-en-7-one] | – | 537 nM | > 10000 nM | 447 nM | 977 nM | – |
| O=C(C1CC1)N1CC[C@@H](CN2C(=O)C3(CC3)N=C2c2ccc(-c3ccc4[nH]ncc4c3)cc2)C1 [compound 297, (R)-5-(4-(1H-indazol-5-yl)phenyl)-6-((1-(cyclopropanecarbonyl)pyrrolidin-3-yl)methyl)-4,6-diazaspiro[2.4]hept-4-en-7-one] | – | 25.1 nM | > 10000 nM | ~30.2 nM | 646 nM | – |
| Cn1ncc2cc(-c3ccc(C4=NC5(CC5)C(=O)N4CC4CN(C(=O)C5CC5)C4)cc3)ccc21 [compound 39, 6-{[1-(Cyclopropylcarbonyl)azetidin-3-yl]methyl}-5-[4-(1-methyl-1H-indazol-5-yl)phenyl]-4,6-diazaspiro[2.4]hept-4-en-7-one] | – | 331 nM | > 10000 nM | 151 nM | 1050 nM | – |
| O=C(C1CC1)N1CC[C@@H](CN2C(=O)C3(CC3)N=C2c2ccc(-c3cccc4[nH]ncc34)cc2)C1 [compound 302] | – | 13.2 nM | > 10000 nM | 16.6 nM | 437 nM | – |
